Test results: ChEMBL document CHEMBL4725308, “MK-5204: An orally active β-1,3-glucan synthesis inhibitor” (Bioorg Med Chem Lett, 2020)
In brackets after ≈: the same amount, converted by molar mass.

Columns and labels:
[1] = test system: Aspergillus fumigatus; test: Antifungal activity against Aspergillus fumigatus MF5668 assessed as fungal growth inhibition measured after 24 hrs by liquid microdilution method; format: functional; details: read-out: MEC
[2] = test system: Candida albicans; test: Antifungal activity against Candida albicans MY1055 assessed as fungal growth inhibition measured after 24 hrs in presence of mouse serum by liquid microdilution method; format: functional
[3] = test system: Candida albicans; test: Antifungal activity against Candida albicans MY1055 infected in DBA/2 mouse model assessed as log change in colony forming units in kidney at 25 mg/kg, po bid for 2 days and measured after 4 days by TOKA; format: functional; details: time 2 day
[4] = Inhibition of beta-1,3-glucan synthase in Candida albicans MY1055 microsomal membrane using UDP-[3H]-glucose as substrate incubated for 2 hrs in presence of UTP by radioactivity-based assay; format: cell membranes
[5] = test system: Candida albicans; test: Antifungal activity against Candida albicans MY1055 infected in DBA mouse model assessed as log change in colony forming units in kidney at 12.5 mg/kg, po bid for 2 days and measured after 4 days by TOKA; format: functional; details: time 2 day
[6] = test system: Candida albicans; test: Antifungal activity against Candida albicans MY1055 infected in DBA/2 mouse model assessed as log change in colony forming units in kidney at 6.5 mg/kg, po bid for 2 days and measured after 4 days by TOKA; format: functional; details: time 2 day
[7] = test system: Candida albicans; test: Antifungal activity against Candida albicans MY1055 assessed as fungal growth inhibition measured after 24 hrs by liquid microdilution method; format: functional
[8] = Oral bioavailability in mouse; format: ADME, organism-based; details: in vivo

| MIC [2] [µg/mL] | IC50 [4] [ng/mL] | MIC [7] [µg/mL] | bioavailability [8] [%] | Structure (SMILES) | minimal effective concentration [1] [µg/mL] | Activity [3] [log CFU] | Activity [5] [log CFU] | Activity [6] [log CFU] |
| --- | --- | --- | --- | --- | --- | --- | --- | --- |
| 8 | 6 | 0.125 (≈ 0.188 µM) | – | CC(C)[C@@H](C)[C@@]1(C)CC[C@]2(C)[C@H]3CC[C@@H]4[C@@]5(COC[C@]4(C)[C@@H](OC[C@](C)(N)C(C)C)[C@H](n4ncnc4C#N)C5)C3=CC[C@@]2(C)[C@@H]1C(=O)O | < 0.03 | -1.1 | 0 | -0.9 |
| > 32 | > 1000 | 32 (≈ 47.5 µM) | – | CC(C)[C@@H](C)[C@@]1(C)CC[C@]2(C)[C@H]3CC[C@@H]4[C@@]5(COC[C@]4(C)[C@@H](OC[C@](C)(N)C(C)C)[C@H](n4cnnc4Cl)C5)C3=CC[C@@]2(C)[C@@H]1C(=O)O | 16 | – | – | – |
| > 32 | 334 | 8 (≈ 12 µM) | – | CC(C)[C@@H](C)[C@@]1(C)CC[C@]2(C)[C@H]3CC[C@@H]4[C@@]5(COC[C@]4(C)[C@@H](OC[C@](C)(N)C(C)C)[C@H](n4cnc(C#N)n4)C5)C3=CC[C@@]2(C)[C@@H]1C(=O)O | 4 | – | – | – |
| > 32 | 19 | 8 (≈ 11.9 µM) | – | CC(C)[C@@H](C)[C@@]1(C)CC[C@]2(C)[C@H]3CC[C@@H]4[C@@]5(COC[C@]4(C)[C@@H](OC[C@](C)(N)C(C)C)[C@H](n4cnc(Cl)n4)C5)C3=CC[C@@]2(C)[C@@H]1C(=O)O | 0.25 | – | – | – |
| 8 | 6 | 0.25 (≈ 0.348 µM) | – | CC(C)[C@@H](C)[C@@]1(C)CC[C@]2(C)[C@H]3CC[C@@H]4[C@@]5(COC[C@]4(C)[C@@H](OC[C@](C)(N)C(C)C)[C@H](n4ncnc4S(N)(=O)=O)C5)C3=CC[C@@]2(C)[C@@H]1C(=O)O | < 0.03 | -0.7 | -0.8 | -0.8 |
| 2 | 8 | 0.125 (≈ 0.18 µM) | – | CC(C)[C@@H](C)[C@@]1(C)CC[C@]2(C)[C@H]3CC[C@@H]4[C@@]5(COC[C@]4(C)[C@@H](OCC4(N)CCOCC4)[C@H](n4ncnc4C(N)=O)C5)C3=CC[C@@]2(C)[C@@H]1C(=O)O | < 0.03 | – | – | – |
| 16 | 15 | 0.5 (≈ 0.704 µM) | 21 | CC(C)[C@@H](C)[C@@]1(C)CC[C@]2(C)[C@H]3CC[C@@H]4[C@@]5(COC[C@]4(C)[C@@H](OC[C@@](C)(C(C)C)N(C)C)[C@H](n4ncnc4C(N)=O)C5)C3=CC[C@@]2(C)[C@@H]1C(=O)O | < 0.03 | -1.8 | -1.4 | -0.3 |
| 8 | 3 | 0.06 (≈ 0.0891 µM) | 9 | CC(C)[C@@H](C)[C@@]1(C)CC[C@]2(C)[C@H]3CC[C@@H]4[C@@]5(COC[C@]4(C)[C@@H](OC[C@](C)(N)C(C)C)[C@H](n4ncnc4Cl)C5)C3=CC[C@@]2(C)[C@@H]1C(=O)O | < 0.03 | -1.9 | -2.2 | -1.2 |
| 8 | 5 | 0.25 (≈ 0.359 µM) | 5 | CN[C@@](C)(CO[C@H]1[C@H](n2ncnc2C(N)=O)C[C@@]23COC[C@@]1(C)[C@@H]2CC[C@H]1C3=CC[C@@]2(C)[C@H](C(=O)O)[C@@](C)([C@H](C)C(C)C)CC[C@]12C)C(C)C | < 0.03 | -1.2 | -0.5 | -0.4 |
| 16 | 10 | 0.25 (≈ 0.345 µM) | 10 | CC(C)NC(=O)c1ncnn1[C@@H]1C[C@@]23COC[C@@](C)([C@@H]2CC[C@H]2C3=CC[C@@]3(C)[C@H](C(=O)O)[C@@](C)([C@H](C)C(C)C)CC[C@]23C)[C@H]1OC[C@](C)(N)C(C)C | < 0.03 | -2.3 | -1.8 | -0.4 |
| 16 | 5 | 0.25 (≈ 0.346 µM) | 30 | CC(C)[C@@H](C)[C@@]1(C)CC[C@]2(C)[C@H]3CC[C@@H]4[C@@]5(COC[C@]4(C)[C@@H](OC[C@](C)(N)C(C)C)[C@H](n4ncnc4C(=O)NC4CC4)C5)C3=CC[C@@]2(C)[C@@H]1C(=O)O | < 0.03 | -2.1 | -0.9 | -0.8 |
| 8 | 5 | 1 (≈ 1.37 µM) | – | CCS(=O)(=O)c1ncnn1[C@@H]1C[C@@]23COC[C@@](C)([C@@H]2CC[C@H]2C3=CC[C@@]3(C)[C@H](C(=O)O)[C@@](C)([C@H](C)C(C)C)CC[C@]23C)[C@H]1OC[C@](C)(N)C(C)C | < 0.03 | – | – | – |
| 16 | 5 | 0.5 (≈ 0.654 µM) | – | CC(C)[C@@H](C)[C@@]1(C)CC[C@]2(C)[C@H]3CC[C@@H]4[C@@]5(COC[C@]4(C)[C@@H](OC[C@](C)(N)C(C)C)[C@H](n4ncnc4I)C5)C3=CC[C@@]2(C)[C@@H]1C(=O)O | < 0.03 | – | – | – |
| 16 | 7 | 0.125 (≈ 0.183 µM) | 3 | CCC(N)(CC)CO[C@H]1[C@H](n2ncnc2C(N)=O)C[C@@]23COC[C@@]1(C)[C@@H]2CC[C@H]1C3=CC[C@@]2(C)[C@H](C(=O)O)[C@@](C)([C@H](C)C(C)C)CC[C@]12C | < 0.03 | -1.9 | -0.6 | -0.2 |
| 8 | 4 | 0.125 (≈ 0.18 µM) | 5 | CNC(=O)c1ncnn1[C@@H]1C[C@@]23COC[C@@](C)([C@@H]2CC[C@H]2C3=CC[C@@]3(C)[C@H](C(=O)O)[C@@](C)([C@H](C)C(C)C)CC[C@]23C)[C@H]1OC[C@](C)(N)C(C)C | < 0.03 | -2.6 | -1.6 | -0.6 |
| 16 | 10 | 0.25 (≈ 0.382 µM) | – | CC(C)[C@@H](C)[C@@]1(C)CC[C@]2(C)[C@H]3CC[C@@H]4[C@@]5(COC[C@]4(C)[C@@H](OC[C@](C)(N)C(C)C)[C@H](n4ncnc4N)C5)C3=CC[C@@]2(C)[C@@H]1C(=O)O | 0.125 | – | – | – |
| 32 | 15 | 0.5 (≈ 0.691 µM) | 19 | CCCN[C@@](C)(CO[C@H]1[C@H](n2ncnc2C(N)=O)C[C@@]23COC[C@@]1(C)[C@@H]2CC[C@H]1C3=CC[C@@]2(C)[C@H](C(=O)O)[C@@](C)([C@H](C)C(C)C)CC[C@]12C)C(C)C | < 0.03 | -1.9 | -0.8 | -0.7 |
| 16 | 8 | 0.25 (≈ 0.352 µM) | 13 | CCNC(=O)c1ncnn1[C@@H]1C[C@@]23COC[C@@](C)([C@@H]2CC[C@H]2C3=CC[C@@]3(C)[C@H](C(=O)O)[C@@](C)([C@H](C)C(C)C)CC[C@]23C)[C@H]1OC[C@](C)(N)C(C)C | < 0.03 | -2.8 | -1.4 | -0.8 |
| 32 | 9 | 0.5 (≈ 0.715 µM) | – | CCSc1ncnn1[C@@H]1C[C@@]23COC[C@@](C)([C@@H]2CC[C@H]2C3=CC[C@@]3(C)[C@H](C(=O)O)[C@@](C)([C@H](C)C(C)C)CC[C@]23C)[C@H]1OC[C@](C)(N)C(C)C | < 0.03 | – | – | – |
| 32 | 4 | 1 (≈ 1.43 µM) | – | COC(=O)c1ncnn1[C@@H]1C[C@@]23COC[C@@](C)([C@@H]2CC[C@H]2C3=CC[C@@]3(C)[C@H](C(=O)O)[C@@](C)([C@H](C)C(C)C)CC[C@]23C)[C@H]1OC[C@](C)(N)C(C)C | 0.125 | – | – | – |
| > 32 | > 1000 | 16 (≈ 24.1 µM) | – | CC(C)[C@@H](C)[C@@]1(C)CC[C@]2(C)[C@H]3CC[C@@H]4[C@@]5(COC[C@]4(C)[C@@H](OC[C@](C)(N)C(C)C)[C@H](n4cnnc4C#N)C5)C3=CC[C@@]2(C)[C@@H]1C(=O)O | 8 | – | – | – |
| 16 | 10 | 0.06 (≈ 0.0865 µM) | – | CC(C)[C@@H](C)[C@@]1(C)CC[C@]2(C)[C@H]3CC[C@@H]4[C@@]5(COC[C@]4(C)[C@@H](OCC4(N)CCCCC4)[C@H](n4ncnc4C(N)=O)C5)C3=CC[C@@]2(C)[C@@H]1C(=O)O | < 0.03 | -1.8 | -1.8 | -0.5 |
| 4 | 7 | 0.25 (≈ 0.391 µM) | – | CC(C)[C@@H](C)[C@@]1(C)CC[C@]2(C)[C@H]3CC[C@@H]4[C@@]5(COC[C@]4(C)[C@@H](OC[C@](C)(N)C(C)C)[C@H](n4cncn4)C5)C3=CC[C@@]2(C)[C@@H]1C(=O)O | < 0.03 | – | – | – |
